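Exposure lasted 48 hours, with cells grown in 96-well plates and compounds tested at five concentrations. GI50 = concentration required for 50% inhibition of growth.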 Calls of active or inactive are those of the source. No stated cut-off is given here; in the data, active = GI50 up to about 1.1 µM and inactive = higher.
What was measured:
Test in all cases: DTP human tumour cell line panel, 48 h
SF-295 = system: SF-295
A549 = system: A549
K562 = system: K562
SF-268 = system: SF-268
COLO 205 = system: COLO 205
LXFL 529 = system: LXFL 529
RPMI-8226 = system: RPMI-8226
M14 = system: M14
MOLT-4 = system: MOLT-4
OVCAR-3 = system: OVCAR-3
U-251 = system: U-251
XF498 = system: XF498
HCT-116 = system: HCT-116
KM-20L2 = system: KM-20L2
SK-MEL-5 = system: SK-MEL-5
SN12C = system: SN12C
OVCAR-4 = system: OVCAR-4
SR = system: SR
EKVX = system: EKVX
RXF 393 = system: RXF 393
786-0 = system: 786-0
TK-10 = system: TK-10
M19-MEL = system: M19-MEL
SK-MEL-28 = system: SK-MEL-28
OVCAR-8 = system: OVCAR-8
NCI-H460 = system: NCI-H460
LOX IMVI = system: LOX IMVI
CCRF-CEM = system: CCRF-CEM
UO-31 = system: UO-31
SNB-75 = system: SNB-75
UACC-62 = system: UACC-62
NCI-H226 = system: NCI-H226
SNB-78 = system: SNB-78
HCT-15 = system: HCT-15
SW-620 = system: SW-620
SF-539 = system: SF-539
KM12 = system: KM12
DMS-114 = system: DMS-114
NCI-H23 = system: NCI-H23
IGROV-1 = system: IGROV-1
DMS-273 = system: DMS-273
Malme-3M = system: Malme-3M
HT-29 = system: HT-29
SNB-19 = system: SNB-19
OVCAR-5 = system: OVCAR-5
ACHN = system: ACHN
SK-MEL-2 = system: SK-MEL-2
NCI-H522 = system: NCI-H522
HL-60 = system: HL-60
HOP-62 = system: HOP-62
DLD-1 = system: DLD-1
A498 = system: A498
CAKI-1 = system: CAKI-1
HCC 2998 = system: HCC 2998
UACC-257 = system: UACC-257
SK-OV-3 = system: SK-OV-3
HOP-92 = system: HOP-92

O=C1NC2(C=Cc3c(ccc4ccccc34)O2)Oc2ccccc21 (stereo not drawn)
GI50 (SF-295): 13 µM (inactive)
GI50 (A549): 18.7 µM (inactive)
GI50 (K562): 3.58 µM (inactive)
GI50 (SF-268): 17.2 µM (inactive)
GI50 (COLO 205): 14.8 µM (inactive)
GI50 (LXFL 529): 18.3 µM (inactive)
GI50 (RPMI-8226): 6.08 µM (inactive)
GI50 (M14): 31 µM (inactive)
GI50 (MOLT-4): 7.8 µM (inactive)
GI50 (OVCAR-3): 13.4 µM (inactive)
GI50 (U-251): 15 µM (inactive)
GI50 (XF498): 19.1 µM (inactive)
GI50 (HCT-116): 12.7 µM (inactive)
GI50 (KM-20L2): 25.8 µM (inactive)
GI50 (SK-MEL-5): 13.1 µM (inactive)
GI50 (SN12C): 17.4 µM (inactive)
GI50 (OVCAR-4): 19.1 µM (inactive)
GI50 (SR): 5.15 µM (inactive)
GI50 (EKVX): 21.1 µM (inactive)
GI50 (RXF 393): 14.3 µM (inactive)
GI50 (786-0): 19 µM (inactive)
GI50 (TK-10): 21.5 µM (inactive)
GI50 (M19-MEL): 25.1 µM (inactive)
GI50 (SK-MEL-28): 15.6 µM (inactive)
GI50 (OVCAR-8): 26.9 µM (inactive)
GI50 (NCI-H460): 27.2 µM (inactive)
GI50 (LOX IMVI): 12.9 µM (inactive)
GI50 (CCRF-CEM): 3.95 µM (inactive)
GI50 (UO-31): 1.76 µM (inactive)
GI50 (SNB-75): 15.1 µM (inactive)
GI50 (UACC-62): 19.2 µM (inactive)
GI50 (NCI-H226): 26.5 µM (inactive)
GI50 (SNB-78): 20.7 µM (inactive)
GI50 (HCT-15): 7.46 µM
GI50 (SW-620): 15 µM (inactive)
GI50 (SF-539): 15.5 µM (inactive)
GI50 (KM12): 5.18 µM (inactive)
GI50 (DMS-114): 13.2 µM (inactive)
GI50 (NCI-H23): 26.7 µM (inactive)
GI50 (IGROV-1): 28.1 µM (inactive)
GI50 (DMS-273): 9.51 µM (inactive)
GI50 (Malme-3M): 28.1 µM (inactive)
GI50 (HT-29): 11.3 µM (inactive)
GI50 (SNB-19): 20.7 µM (inactive)
GI50 (OVCAR-5): 36.6 µM (inactive)
GI50 (ACHN): 18.7 µM (inactive)
GI50 (SK-MEL-2): 13.2 µM (inactive)
GI50 (NCI-H522): 11.4 µM (inactive)
GI50 (HL-60): 4.81 µM (inactive)
GI50 (HOP-62): 31.7 µM (inactive)

C=CCn1c(=S)sc2c(O)ncnc21
GI50 (SF-295): > 100 µM (inactive)
GI50 (A549): > 100 µM (inactive)
GI50 (K562): > 100 µM (inactive)
GI50 (SF-268): > 100 µM (inactive)
GI50 (DLD-1): > 100 µM (inactive)
GI50 (COLO 205): > 100 µM (inactive)
GI50 (LXFL 529): > 100 µM (inactive)
GI50 (M14): > 100 µM (inactive)
GI50 (MOLT-4): > 100 µM (inactive)
GI50 (OVCAR-3): > 100 µM (inactive)
GI50 (U-251): 48.8 µM (inactive)
GI50 (XF498): > 100 µM (inactive)
GI50 (HCT-116): > 100 µM (inactive)
GI50 (KM-20L2): > 100 µM (inactive)
GI50 (SK-MEL-5): > 100 µM (inactive)
GI50 (SN12C): > 100 µM (inactive)
GI50 (OVCAR-4): > 100 µM (inactive)
GI50 (SR): > 100 µM (inactive)
GI50 (EKVX): > 100 µM (inactive)
GI50 (786-0): > 100 µM (inactive)
GI50 (TK-10): > 100 µM (inactive)
GI50 (M19-MEL): > 100 µM (inactive)
GI50 (OVCAR-8): > 100 µM (inactive)
GI50 (NCI-H460): > 100 µM (inactive)
GI50 (A498): > 100 µM (inactive)
GI50 (LOX IMVI): > 100 µM (inactive)
GI50 (CCRF-CEM): > 100 µM (inactive)
GI50 (UO-31): > 100 µM (inactive)
GI50 (SNB-75): 61.2 µM (inactive)
GI50 (UACC-62): > 100 µM (inactive)
GI50 (CAKI-1): > 100 µM (inactive)
GI50 (SNB-78): > 100 µM (inactive)
GI50 (HCT-15): > 100 µM
GI50 (SW-620): > 100 µM (inactive)
GI50 (HCC 2998): > 100 µM (inactive)
GI50 (SF-539): > 100 µM (inactive)
GI50 (KM12): > 100 µM (inactive)
GI50 (DMS-114): > 100 µM (inactive)
GI50 (NCI-H23): > 100 µM (inactive)
GI50 (IGROV-1): > 100 µM (inactive)
GI50 (UACC-257): > 100 µM (inactive)
GI50 (DMS-273): > 100 µM (inactive)
GI50 (Malme-3M): > 100 µM (inactive)
GI50 (HT-29): > 100 µM (inactive)
GI50 (SNB-19): > 100 µM (inactive)
GI50 (OVCAR-5): > 100 µM (inactive)
GI50 (ACHN): > 100 µM (inactive)
GI50 (SK-OV-3): > 100 µM (inactive)
GI50 (SK-MEL-2): > 100 µM (inactive)
GI50 (NCI-H522): > 100 µM (inactive)
GI50 (HL-60): > 100 µM (inactive)
GI50 (HOP-62): > 100 µM (inactive)
GI50 (HOP-92): 94 µM (inactive)

Source: ChEMBL document CHEMBL1201862, “PubChem BioAssay data set” (2004)
